Laboratory results published in patent US11685719B2, “Pyridinone MK2 inhibitors and uses thereof” (Xinthera, Inc., priority 2021, dated 2023).

Legend:
p38a/PRAK = p38a/PRAK (Homo sapiens (Human), UniProt Q16539); assay: biochemical; settings: 10-point 1:3 dilution, top dose 300 μM; 10 μM ATP, 2 h incubation; read-out: p38a/PRAK Enzyme pIC50 (converted)
Procedure: (§1) Expression vectors of the recombinant MK2 and PRAK kinases were constructed by cloning of the codon optimized gene sequences of MK2 (Uniprot ID P49137, amino acid fragment F46-H400), or PRAK (Uniprot ID Q81W41, amino acid fragment M1-Q471) into pGEX-4T1 (GE) for over expression of these kinases with N-terminal GST-tag. Protein expression was carried out in E. coli BL21 by growing the hosts in TB medium, induction of protein expression with 0.5 mM IPTG at approximate 0.8 OD600, and incubation of the cultures at 18° C. for 14-20 hours afterwards. The harvested cells were resuspended in […] of Lysis buffer (50 mM Tris-HCl, pH 8.0, 500 mM NaCl, 1 mM DTT, 5% glycerol, and 1 mM PMSF) per gram of wet cell mass and homogenized at 4° C. in a microfluidizer (ATS, Suzhou, China) at 14,000 psi pressure, 3 passes. The cell lysates were clarified by centrifugation and the supernatants containing the GST-fusion proteins were purified by affinity chromatography using GSH-Sepharose (GE) gravity flow columns pre-equilibrated in Buffer A (50 mM Tris-HCl, pH 8.0, 500 mM NaCl, 1 mM DTT, and 5% glycerol). After thorough washing of the columns with Buffer A, the bound GST-proteins were eluted by Buffer B (50 mM Tris, pH 8.0, 500 mM NaCl, 1 mM DTT, 5% glycerol, 10 mM glutathione), followed by size-exclusion purification on Superdex 200 column equilibrated in Buffer A. The purified proteins were concentrated to approximately 1 mg/ml and stored at −80° C.
(§2) This study evaluates the inhibitory potency of invention compound on p38/MK2 pathway vs p38/PRAK pathway. More specially the compound concentration (IC50) was determined that inhibited half of the maximal activation of MK2 or PRAK by p38. MK2 activation study was set up without or with a serial of 10-point 1:3 dilution of invention compound at top dose of 1 or 10 μM, and PRAK activation study was set up without or with a serial of 10-point 1:3 dilution of invention compound at top dose of 300 μM. The MIK2 and PRAK activity were determined by the phosphorylation level of HSP27 peptide conjugated with FITC.

p38a/MK2 = p38a/MK2 (Homo sapiens (Human), UniProt P49137+Q16539); assay: biochemical; settings: 10-point 1:3 dilution, top dose 1 μM; 10 μM ATP, 2 h incubation; read-out: p38a/MK2 (1 μM) Enzyme pIC50 (converted)
Chain of p38a/MK2 (Q16539 whole entry): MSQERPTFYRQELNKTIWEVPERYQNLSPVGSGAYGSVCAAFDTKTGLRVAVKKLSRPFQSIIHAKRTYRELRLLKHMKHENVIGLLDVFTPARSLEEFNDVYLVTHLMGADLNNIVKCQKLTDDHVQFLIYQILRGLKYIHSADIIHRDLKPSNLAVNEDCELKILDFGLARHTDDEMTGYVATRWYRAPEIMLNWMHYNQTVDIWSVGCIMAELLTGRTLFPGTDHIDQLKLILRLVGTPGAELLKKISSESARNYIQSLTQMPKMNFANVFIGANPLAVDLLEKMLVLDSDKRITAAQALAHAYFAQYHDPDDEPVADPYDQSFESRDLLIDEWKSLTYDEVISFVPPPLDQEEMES
Chain of p38a/MK2 (P49137 46-400): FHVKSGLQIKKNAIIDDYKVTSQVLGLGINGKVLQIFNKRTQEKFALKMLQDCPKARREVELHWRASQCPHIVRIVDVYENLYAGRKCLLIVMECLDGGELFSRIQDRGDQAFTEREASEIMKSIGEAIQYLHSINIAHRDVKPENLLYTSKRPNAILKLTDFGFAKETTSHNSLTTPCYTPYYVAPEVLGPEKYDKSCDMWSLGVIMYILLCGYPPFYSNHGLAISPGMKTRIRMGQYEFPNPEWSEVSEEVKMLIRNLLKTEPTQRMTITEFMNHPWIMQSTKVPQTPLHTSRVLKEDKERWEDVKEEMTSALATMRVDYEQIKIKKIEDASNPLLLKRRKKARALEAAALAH
Procedure: as §1, §2

Chain of p38a/PRAK (Q16539 whole entry, the tested form may be a part): as the sequence (Q16539 whole entry) above

| IC50 (p38a/PRAK) [nM] | IC50 (p38a/MK2) [nM] | Compound |
| --- | --- | --- |
| 5010 | 3.98 | Cc1cnc(-n2cccc(C(C)(C)CO)c2=O)cc1-n1c(C)cc(OCc2ncc(F)cc2F)c(Cl)c1=O (single isomer, unassigned) [Example 11A, rel-3-chloro-4-[(3,5-difluoropyridin-2-yl)methoxy]-2′-[3-(1-hydroxy-2-methylpropan-2-yl)-2-oxopyridin-1-yl]-5′,6-dimethyl-[1,4′-bipyridin]-2-one] |
| > 316000 | > 1000 | Cc1cnc(-n2cccc(C(C)(C)CO)c2=O)cc1-n1c(C)cc(OCc2ncc(F)cc2F)c(Cl)c1=O (single isomer, unassigned) [Example 11B, rel-3-chloro-4-[(3,5-difluoropyridin-2-yl)methoxy]-2′-[3-(1-hydroxy-2-methylpropan-2-yl)-2-oxopyridin-1-yl]-5′,6-dimethyl-[1,4′-bipyridin]-2-one] |
| 7940 | 12.6 | Cc1cnc(-n2cccc(C3(O)CCC3)c2=O)cc1-n1c(C)cc(OCc2ncc(F)cc2F)c(Cl)c1=O (single isomer, unassigned) [Example 12A, rel-3-chloro-4-[(3,5-difluoropyridin-2-yl)methoxy]-2′-[3-(1-hydroxycyclobutyl)-2-oxopyridin-1-yl]-5′,6-dimethyl-[1,4′-bipyridin]-2-one] |
| > 316000 | > 1000 | Cc1cnc(-n2cccc(C3(O)CCC3)c2=O)cc1-n1c(C)cc(OCc2ncc(F)cc2F)c(Cl)c1=O (single isomer, unassigned) [Example 12B, rel-3-chloro-4-[(3,5-difluoropyridin-2-yl)methoxy]-2′-[3-(1-hydroxycyclobutyl)-2-oxopyridin-1-yl]-5′,6-dimethyl-[1,4′-bipyridin]-2-one] |
| > 316000 | > 1000 | Cc1cnc(-n2cc(C(C)(C)O)ccc2=O)cc1-n1c(C)cc(OCc2ncc(F)cc2F)c(Cl)c1=O (single isomer, unassigned) [Example 13A, rel-3-chloro-4-[(3,5-difluoropyridin-2-yl)methoxy]-2′-[5-(2-hydroxypropan-2-yl)-2-oxopyridin-1-yl]-5′,6-dimethyl-[1,4′-bipyridin]-2-one] |
| 3160 | 1.58 | Cc1cnc(-n2cccc([C@](C)(O)C3CC3)c2=O)cc1-n1c(C)cc(OCc2ncc(F)cc2F)c(Cl)c1=O (single isomer, unassigned) [Example 14A, rel-3-chloro-2′-[3-(1-cyclopropyl-1-hydroxyethyl)-2-oxopyridin-1-yl]-4-[(3,5-difluoropyridin-2-yl)methoxy]-5′,6-dimethyl-[1,4′-bipyridin]-2-one] |
| 3160 | 1.26 | Cc1cnc(-n2cccc([C@@](C)(O)C3CC3)c2=O)cc1-n1c(C)cc(OCc2ncc(F)cc2F)c(Cl)c1=O (single isomer, unassigned) [Example 14B, rel-3-chloro-2′-[3-(1-cyclopropyl-1-hydroxyethyl)-2-oxopyridin-1-yl]-4-[(3,5-difluoropyridin-2-yl)methoxy]-5′,6-dimethyl-[1,4′-bipyridin]-2-one] |
| > 316000 | > 1000 | Cc1cnc(-n2cccc([C@](C)(O)C3CC3)c2=O)cc1-n1c(C)cc(OCc2ncc(F)cc2F)c(Cl)c1=O (single isomer, unassigned) [Example 14C, rel-3-chloro-2′-[3-(1-cyclopropyl-1-hydroxyethyl)-2-oxopyridin-1-yl]-4-[(3,5-difluoropyridin-2-yl)methoxy]-5′,6-dimethyl-[1,4′-bipyridin]-2-one] |
| > 316000 | > 1000 | Cc1cnc(-n2cccc([C@@](C)(O)C3CC3)c2=O)cc1-n1c(C)cc(OCc2ncc(F)cc2F)c(Cl)c1=O (single isomer, unassigned) [Example 14D, rel-3-chloro-2′-[3-(1-cyclopropyl-1-hydroxyethyl)-2-oxopyridin-1-yl]-4-[(3,5-difluoropyridin-2-yl)methoxy]-5′,6-dimethyl-[1,4′-bipyridin]-2-one] |

Second part, the compound before the results:

| Compound | IC50 (p38a/PRAK) [nM] | IC50 (p38a/MK2) [nM] |
| --- | --- | --- |
| Cc1cnc(-n2cccc(C(C)(C)O)c2=O)cc1-n1c(C)cc(OCc2ncc(Cl)cc2F)c(Cl)c1=O (single isomer, unassigned) [Example 4B, rel-3-chloro-4-[(5-chloro-3-fluoropyridin-2-yl)methoxy]-2′-[3-(2-hydroxypropan-2-yl)-2-oxopyridin-1-yl]-5′,6-dimethyl-[1,4′-bipyridin]-2-one] | > 316000 | > 1000 |
| Cc1cnc(-n2ccnc(C(C)(C)O)c2=O)cc1-n1c(C)cc(OCc2ncc(F)cc2F)c(Cl)c1=O (single isomer, unassigned) [Example 5A, rel-3-chloro-4-[(3,5-difluoropyridin-2-yl)methoxy]-2′-[3-(2-hydroxypropan-2-yl)-2-oxopyrazin-1-yl]-5′,6-dimethyl-[1,4′-bipyridin]-2-one] | 2510 | 2.51 |
| Cc1cnc(-n2ccnc(C(C)(C)O)c2=O)cc1-n1c(C)cc(OCc2ncc(F)cc2F)c(Cl)c1=O (single isomer, unassigned) [Example 5B, rel-3-chloro-4-[(3,5-difluoropyridin-2-yl)methoxy]-2′-[3-(2-hydroxypropan-2-yl)-2-oxopyrazin-1-yl]-5′,6-dimethyl-[1,4′-bipyridin]-2-one] | > 316000 | > 1000 |
| Cc1cnc(-n2cccc(C(C)(C)O)c2=O)cc1-n1c(C)cc(OCc2ncc(F)cc2Cl)c(Cl)c1=O (single isomer, unassigned) [Example 7A, rel-3-chloro-4-[(3-chloro-5-fluoropyridin-2-yl)methoxy]-2′-[3-(2-hydroxypropan-2-yl)-2-oxopyridin-1-yl]-5′,6-dimethyl-[1,4′-bipyridin]-2-one] | 7940 | 1 |
| Cc1cnc(-n2cccc(C(C)(C)O)c2=O)cc1-n1c(C)cc(OCc2ncc(F)cc2Cl)c(Cl)c1=O (single isomer, unassigned) [Example 7B, rel-3-chloro-4-[(3-chloro-5-fluoropyridin-2-yl)methoxy]-2′-[3-(2-hydroxypropan-2-yl)-2-oxopyridin-1-yl]-5′,6-dimethyl-[1,4′-bipyridin]-2-one] | > 316000 | > 1000 |
| Cc1cnc(-n2cccc(C3CCOCC3)c2=O)cc1-n1c(C)cc(OCc2ncc(F)cc2F)c(Cl)c1=O (single isomer, unassigned) [Example 8A, rel-3-chloro-4-[(3,5-difluoropyridin-2-yl)methoxy]-5′,6-dimethyl-2′-[3-(oxan-4-yl)-2-oxopyridin-1-yl]-[1,4′-bipyridin]-2-one] | 2510 | 0.794 |
| Cc1cnc(-n2cccc(C3CCOCC3)c2=O)cc1-n1c(C)cc(OCc2ncc(F)cc2F)c(Cl)c1=O (single isomer, unassigned) [Example 8B, rel-3-chloro-4-[(3,5-difluoropyridin-2-yl)methoxy]-5′,6-dimethyl-2′-[3-(oxan-4-yl)-2-oxopyridin-1-yl]-[1,4′-bipyridin]-2-one] | > 316000 | > 1000 |
| Cc1cnc(-n2nccc(C(C)(C)O)c2=O)cc1-n1c(C)cc(OCc2ncc(F)cc2F)c(Cl)c1=O (single isomer, unassigned) [Example 9A, rel-3-chloro-4-[(3,5-difluoropyridin-2-yl)methoxy]-2′-[5-(2-hydroxypropan-2-yl)-6-oxopyridazin-1-yl]-5′,6-dimethyl-[1,4′-bipyridin]-2-one] | 2000 | 12.6 |
| Cc1cnc(-n2nccc(C(C)(C)O)c2=O)cc1-n1c(C)cc(OCc2ncc(F)cc2F)c(Cl)c1=O (single isomer, unassigned) [Example 9B, rel-3-chloro-4-[(3,5-difluoropyridin-2-yl)methoxy]-2′-[5-(2-hydroxypropan-2-yl)-6-oxopyridazin-1-yl]-5′,6-dimethyl-[1,4′-bipyridin]-2-one] | > 316000 | > 1000 |
| Cc1cnc(-n2cncc(C(C)(C)O)c2=O)cc1-n1c(C)cc(OCc2ncc(F)cc2F)c(Cl)c1=O (single isomer, unassigned) [Example 10A, rel-3-chloro-4-[(3,5-difluoropyridin-2-yl)methoxy]-2′-[5-(2-hydroxypropan-2-yl)-6-oxopyrimidin-1-yl]-5′,6-dimethyl-[1,4′-bipyridin]-2-one] | 3980 | 100 |
| Cc1cnc(-n2cncc(C(C)(C)O)c2=O)cc1-n1c(C)cc(OCc2ncc(F)cc2F)c(Cl)c1=O (single isomer, unassigned) [Example 10B, rel-3-chloro-4-[(3,5-difluoropyridin-2-yl)methoxy]-2′-[5-(2-hydroxypropan-2-yl)-6-oxopyrimidin-1-yl]-5′,6-dimethyl-[1,4′-bipyridin]-2-one] | > 316000 | > 1000 |
